The structures appear in SMILES notation. Where a SMILES comes first, the peptide text is derived from it. Bridges are numbered along the chain shown (N, C = ends). [ ]: non-standard residue; d: D form. NMePhe(3-Cl) = CN[C@@H](Cc1cccc(Cl)c1)C(=O)O; NMeW = CN[C@@H](Cc1c[nH]c2ccccc12)C(=O)O; Lys(N3) = [N-]=[N+]=NCCCC[C@H](N)C(=O)O; NMeY = CN[C@@H](Cc1ccc(O)cc1)C(=O)O; Sar = CNCC(=O)O

For the first assay, the target named is transferrin receptor (hTfR) (Homo sapiens, UniProt P02786). In words: Intermolecular interaction evaluation test between transferrin receptor (hTfR) and peptide by surface plasmon resonance (SPR). The assay is classed as binding.
Chain of transferrin receptor (hTfR) (P02786 whole entry): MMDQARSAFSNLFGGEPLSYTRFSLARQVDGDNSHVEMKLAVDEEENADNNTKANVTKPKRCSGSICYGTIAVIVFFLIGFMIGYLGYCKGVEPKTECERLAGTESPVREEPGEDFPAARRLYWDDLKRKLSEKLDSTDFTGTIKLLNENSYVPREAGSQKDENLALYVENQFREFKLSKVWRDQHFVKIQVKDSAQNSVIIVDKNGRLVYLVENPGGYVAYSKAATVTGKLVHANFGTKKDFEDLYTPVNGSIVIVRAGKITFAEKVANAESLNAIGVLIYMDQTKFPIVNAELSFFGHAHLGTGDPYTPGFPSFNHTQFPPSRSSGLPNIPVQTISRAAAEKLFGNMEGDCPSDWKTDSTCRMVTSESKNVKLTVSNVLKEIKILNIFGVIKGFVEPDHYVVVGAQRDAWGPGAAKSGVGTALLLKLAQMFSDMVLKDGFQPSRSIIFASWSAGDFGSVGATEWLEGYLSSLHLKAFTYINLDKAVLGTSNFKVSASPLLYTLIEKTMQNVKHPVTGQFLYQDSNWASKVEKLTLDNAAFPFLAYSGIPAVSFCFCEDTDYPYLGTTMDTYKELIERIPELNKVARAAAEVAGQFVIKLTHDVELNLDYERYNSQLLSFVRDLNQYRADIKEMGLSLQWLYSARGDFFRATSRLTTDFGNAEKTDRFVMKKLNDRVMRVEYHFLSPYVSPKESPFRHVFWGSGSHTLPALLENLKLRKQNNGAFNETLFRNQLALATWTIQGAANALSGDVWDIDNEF
Details: not given
Put shortly: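 Receptor was Ni-captured and EDC/NHS-fixed on an NTA chip; running buffer HEPES pH 8.0 with NaCl, Tween 20, BSA and 1.0% DMSO.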
Take `CC[C@H](C)[C@@H]1NC(=O)[C@H](Cc2ccc(OC)cc2)NC(=O)[C@H](Cc2ccc(O)cc2)NC(=O)[C@H](CC(N)=O)NC(=O)[C@H](Cc2c[nH]c3ccccc23)N(C)C(=O)[C@H](C(C)C)NC(=O)[C@H](Cc2cccc(Cl)c2)N(C)C(=O)[C@H](C(C)C)NC(=O)[C@H](C)NC(=O)CSC[C@@H](C(=O)N(C)CC(=O)N(C)CC(=O)N(C)CC(N)=O)NC(=O)[C@H](Cc2ccc(O)cc2)N(C)C(=O)[C@H](Cc2ccccc2)NC(=O)[C@@H](CCCNC(=N)N)NC(=O)[C@H](CCCNC(=N)N)NC(=O)[C@H]([C@@H](C)CC)NC1=O` [compound 399] ({CH2CO}-AV[NMePhe(3-Cl)]V[NMeW]NYY(Me)IIR[dR]F[NMeY]C[Sar][Sar][Sar]-NH2; thioether N-15): the dissociation constant Kd (usually the constant that tells how readily two partners part at equilibrium) fell in the range of 1 to 100 nM.

The compound `CC[C@H](C)[C@@H]1NC(=O)[C@H](Cc2ccc(OC)cc2)NC(=O)[C@H](Cc2ccc(O)cc2)NC(=O)[C@H](CC(N)=O)NC(=O)[C@H](Cc2c[nH]c3ccccc23)N(C)C(=O)[C@H](C(C)C)NC(=O)[C@H](Cc2cccc(Cl)c2)N(C)C(=O)[C@H](C(C)C)NC(=O)[C@H](C)NC(=O)CSC[C@@H](C(=O)NCC(=O)NCC(=O)NCC(=O)NCC(=O)N[C@@H](CO)C(=O)N[C@@H](CO)C(=O)N[C@@H](CS)C(N)=O)NC(=O)[C@H](Cc2ccc(O)cc2)N(C)C(=O)[C@H](Cc2ccccc2)NC(=O)[C@@H](CCCNC(=N)N)NC(=O)[C@H](CCCNC(=N)N)NC(=O)[C@H]([C@@H](C)CC)NC1=O` [compound 401] yielded a Kd of 1 to 100 nM.

Still in this assay, the particulars now being: surface plasmon resonance, hTfR; read-out: KD value for hTfR by SPR (class symbol).
In the case of `CC[C@H](C)[C@@H]1NC(=O)[C@H](Cc2ccc(OC)cc2)NC(=O)[C@H](Cc2ccc(O)cc2)NC(=O)[C@H](CC(N)=O)NC(=O)[C@H](Cc2c[nH]c3ccccc23)N(C)C(=O)[C@H](C(C)C)NC(=O)[C@H](Cc2cccc(Cl)c2)N(C)C(=O)[C@H](C(C)C)NC(=O)[C@H](C)NC(=O)CSC[C@@H](C(N)=O)NC(=O)[C@H](Cc2ccc(O)cc2)N(C)C(=O)[C@H](CCC(=O)N[C@H](CCC(=O)O)C(=O)O)NC(=O)[C@@H](CCCNC(=N)N)NC(=O)[C@H](CCCNC(=N)N)NC(=O)[C@H]([C@@H](C)CC)NC1=O` [compound 391], the Kd was in the range of 1 to 100 nM.

Consider `CC[C@H](C)[C@@H]1NC(=O)[C@H](Cc2ccc(OC)cc2)NC(=O)[C@H](Cc2ccc(O)cc2)NC(=O)[C@H](CC(N)=O)NC(=O)[C@H](Cc2c[nH]c3ccccc23)N(C)C(=O)[C@H](C(C)C)NC(=O)[C@H](Cc2cccc(Cl)c2)N(C)C(=O)[C@H](C(C)C)NC(=O)[C@H](C)NC(=O)CSC[C@@H](C(N)=O)NC(=O)[C@H](Cc2ccc(O)cc2)N(C)C(=O)[C@H](Cc2ccc(Cl)cc2)NC(=O)[C@@H](CCCNC(=N)N)NC(=O)[C@H](CCCNC(=N)N)NC(=O)[C@H]([C@@H](C)CC)NC1=O` [compound 392], for which the Kd was 1 to 100 nM.

With `CC[C@H](C)[C@@H]1NC(=O)[C@H](Cc2ccc(OC)cc2)NC(=O)[C@H](Cc2ccc(O)cc2)NC(=O)[C@H](CC(N)=O)NC(=O)[C@H](Cc2c[nH]c3ccccc23)N(C)C(=O)[C@H](C(C)C)NC(=O)[C@H](Cc2cccc(Cl)c2)N(C)C(=O)[C@H](C(C)C)NC(=O)[C@H](C)NC(=O)CSC[C@@H](C(N)=O)NC(=O)[C@H](Cc2ccc(O)cc2)N(C)C(=O)[C@H](Cc2cccc(Cl)c2)NC(=O)[C@@H](CCCNC(=N)N)NC(=O)[C@H](CCCNC(=N)N)NC(=O)[C@H]([C@@H](C)CC)NC1=O` [compound 393], the Kd fell in the range of 1 to 100 nM.

Turning to `CC[C@H](C)[C@@H]1NC(=O)[C@H](Cc2ccc(OC)cc2)NC(=O)[C@H](Cc2ccc(O)cc2)NC(=O)[C@H](CC(N)=O)NC(=O)[C@H](Cc2c[nH]c3ccccc23)N(C)C(=O)[C@H](C(C)C)NC(=O)[C@H](Cc2cccc(Cl)c2)N(C)C(=O)[C@H](C(C)C)NC(=O)[C@H](C)NC(=O)CSC[C@@H](C(N)=O)NC(=O)[C@H](Cc2ccc(O)cc2)N(C)C(=O)[C@H](Cc2cccc(OC)c2)NC(=O)[C@@H](CCCNC(=N)N)NC(=O)[C@H](CCCNC(=N)N)NC(=O)[C@H]([C@@H](C)CC)NC1=O` [compound 394], the Kd was in the range of 1 to 100 nM.

In the case of `CC[C@H](C)[C@@H]1NC(=O)[C@H](Cc2ccc(OC)cc2)NC(=O)[C@H](Cc2ccc(O)cc2)NC(=O)[C@H](CC(N)=O)NC(=O)[C@H](Cc2c[nH]c3ccccc23)N(C)C(=O)[C@H](C(C)C)NC(=O)[C@H](Cc2cccc(Cl)c2)N(C)C(=O)[C@H](C(C)C)NC(=O)[C@H](C)NC(=O)CSC[C@H](C(N)=O)NC(=O)[C@H](Cc2ccc(O)cc2)N(C)C(=O)[C@H](Cc2ccccc2)NC(=O)[C@@H](CCCNC(=N)N)NC(=O)[C@H](CCCNC(=N)N)NC(=O)[C@H]([C@@H](C)CC)NC1=O` [compound 396], the Kd fell in the range of 1 to 100 nM.

As for `CC[C@H](C)[C@@H]1NC(=O)[C@H](Cc2ccc(OC)cc2)NC(=O)[C@H](Cc2ccc(O)cc2)NC(=O)[C@H](CC(N)=O)NC(=O)[C@H](Cc2c[nH]c3ccccc23)N(C)C(=O)[C@H](C(C)C)NC(=O)[C@H](Cc2cccc(Cl)c2)N(C)C(=O)[C@H](C(C)C)NC(=O)[C@H](C)NC(=O)CSC[C@@H](C(N)=O)NC(=O)[C@H](Cc2ccc(O)cc2)N(C)C(=O)[C@H](Cc2ccccc2)NC(=O)[C@@H](CCCNC(=N)N)NC(=O)[C@H](CCCNC(=N)N)NC(=O)[C@H]([C@@H](C)CC)NC1=O` [compound 397], the Kd lay in the range of 1 to 100 nM.

On to `CC[C@H](C)[C@@H]1NC(=O)[C@H](Cc2ccc(OC)cc2)NC(=O)[C@H](Cc2ccc(O)cc2)NC(=O)[C@H](CC(N)=O)NC(=O)[C@H](Cc2c[nH]c3ccccc23)N(C)C(=O)[C@H](C(C)C)NC(=O)[C@H](Cc2cccc(Cl)c2)N(C)C(=O)[C@H](C(C)C)NC(=O)[C@H](C)NC(=O)CSC[C@@H](C(=O)NCCOCCOCCOCCOCCC(N)=O)NC(=O)[C@H](Cc2ccc(O)cc2)N(C)C(=O)[C@H](Cc2ccccc2)NC(=O)[C@@H](CCCNC(=N)N)NC(=O)[C@H](CCCNC(=N)N)NC(=O)[C@H]([C@@H](C)CC)NC1=O` [compound 400], for which the Kd fell in the range of 1 to 100 nM.

Consider `CC[C@H](C)[C@@H]1NC(=O)[C@H](Cc2ccc(OC)cc2)NC(=O)[C@H](Cc2ccc(O)cc2)NC(=O)[C@H](CC(N)=O)NC(=O)[C@H](Cc2c[nH]c3ccccc23)N(C)C(=O)[C@H](C(C)C)NC(=O)[C@H](Cc2cccc(Cl)c2)N(C)C(=O)[C@H](C(C)C)NC(=O)[C@H](C)NC(=O)CSC[C@@H](C(=O)N[C@H](CCC(=O)O)C(=O)NCC(=O)NCC(=O)NCC(=O)N[C@@H](CO)C(=O)N[C@@H](CO)C(=O)N[C@@H](CS)C(N)=O)NC(=O)[C@H](Cc2ccc(O)cc2)N(C)C(=O)[C@H](Cc2ccccc2)NC(=O)[C@@H](CCCNC(=N)N)NC(=O)[C@H](CCCNC(=N)N)NC(=O)[C@H]([C@@H](C)CC)NC1=O` [compound 402] ({CH2CO}-AV[NMePhe(3-Cl)]V[NMeW]NYY(Me)IIR[dR]F[NMeY]C[dE]GGGSSC-NH2; thioether N-15), for which the equilibrium dissociation constant (Kd) fell in the range of 1 to 100 nM.

For `CC[C@H](C)[C@@H]1NC(=O)[C@H](Cc2ccc(OC)cc2)NC(=O)[C@H](Cc2ccc(O)cc2)NC(=O)[C@H](CC(N)=O)NC(=O)[C@H](Cc2c[nH]c3ccccc23)N(C)C(=O)[C@H](C(C)C)NC(=O)[C@H](Cc2cccc(Cl)c2)N(C)C(=O)[C@H](C(C)C)NC(=O)[C@H](C)NC(=O)CSC[C@@H](C(=O)NCC(=O)N[C@H](CCC(=O)O)C(=O)NCC(=O)N[C@H](CCC(=O)O)C(=O)N[C@@H](CO)C(=O)N[C@@H](CO)C(=O)N[C@@H](CS)C(N)=O)NC(=O)[C@H](Cc2ccc(O)cc2)N(C)C(=O)[C@H](Cc2ccccc2)NC(=O)[C@@H](CCCNC(=N)N)NC(=O)[C@H](CCCNC(=N)N)NC(=O)[C@H]([C@@H](C)CC)NC1=O` [compound 403], the Kd was 1 to 100 nM.

With `CC[C@H](C)[C@@H]1NC(=O)[C@H](Cc2ccc(OC)cc2)NC(=O)[C@H](Cc2ccc(O)cc2)NC(=O)[C@H](CC(N)=O)NC(=O)[C@H](Cc2c[nH]c3ccccc23)N(C)C(=O)[C@H](C(C)C)NC(=O)[C@H](Cc2cccc(Cl)c2)N(C)C(=O)[C@H](C(C)C)NC(=O)[C@H](C)NC(=O)CSC[C@@H](C(=O)NCC(=O)N[C@H](CCC(=O)O)C(=O)NCC(=O)N[C@H](CCCCN)C(=O)N[C@@H](CO)C(=O)N[C@@H](CO)C(=O)N[C@@H](CS)C(N)=O)NC(=O)[C@H](Cc2ccc(O)cc2)N(C)C(=O)[C@H](Cc2ccccc2)NC(=O)[C@@H](CCCNC(=N)N)NC(=O)[C@H](CCCNC(=N)N)NC(=O)[C@H]([C@@H](C)CC)NC1=O` [compound 404] ({CH2CO}-AV[NMePhe(3-Cl)]V[NMeW]NYY(Me)IIR[dR]F[NMeY]CG[dE]G[dK]SSC-NH2; thioether N-15), the Kd lay in the range of 1 to 100 nM.

On to `CC[C@H](C)[C@@H]1NC(=O)[C@H](Cc2ccc(OC)cc2)NC(=O)[C@H](Cc2ccc(O)cc2)NC(=O)[C@H](CC(N)=O)NC(=O)[C@H](Cc2c[nH]c3ccccc23)N(C)C(=O)[C@H](C(C)C)NC(=O)[C@H](Cc2cccc(Cl)c2)N(C)C(=O)[C@H](C(C)C)NC(=O)[C@H](C)NC(=O)CSC[C@@H](C(=O)NCC(=O)N[C@@H](CCCCN=[N+]=[N-])C(N)=O)NC(=O)[C@H](Cc2ccc(O)cc2)N(C)C(=O)[C@H](Cc2ccccc2)NC(=O)[C@@H](CCCNC(=N)N)NC(=O)[C@H](CCCNC(=N)N)NC(=O)[C@H]([C@@H](C)CC)NC1=O` [compound 405] ({CH2CO}-AV[NMePhe(3-Cl)]V[NMeW]NYY(Me)IIR[dR]F[NMeY]CG[Lys(N3)]-NH2; thioether N-15), for which the dissociation constant Kd was in the range of 1 to 100 nM.

`CC[C@H](C)[C@@H]1NC(=O)[C@H](Cc2ccc(OC)cc2)NC(=O)[C@H](Cc2ccc(O)cc2)NC(=O)[C@H](CC(N)=O)NC(=O)[C@H](Cc2c[nH]c3ccccc23)N(C)C(=O)[C@H](C(C)C)NC(=O)[C@H](Cc2cccc(Cl)c2)N(C)C(=O)[C@H](C(C)C)NC(=O)[C@H](C)NC(=O)CSC[C@@H](C(=O)NCC(=O)NCC(=O)N[C@@H](CO)C(=O)NCC(=O)N[C@@H](CO)C(=O)NCC(=O)N[C@@H](CCCCN=[N+]=[N-])C(N)=O)NC(=O)[C@H](Cc2ccc(O)cc2)N(C)C(=O)[C@H](Cc2ccccc2)NC(=O)[C@@H](CCCCN)NC(=O)[C@H](CCCNC(=N)N)NC(=O)[C@H]([C@@H](C)CC)NC1=O` [compound 406] ({CH2CO}-AV[NMePhe(3-Cl)]V[NMeW]NYY(Me)IIR[dK]F[NMeY]CGGSGSG[Lys(N3)]-NH2; thioether N-15): the Kd was in the range of 1 to 100 nM.

Source of the values: US20230203098A1, “HUMAN TRANSFERRIN RECEPTOR BINDING PEPTIDE” (priority 2020, published 2023).
